# From patent publication US7687055B2, “Method of treating keratinic fibers with creatine, creatinine and/or their salts to strengthen, restructure, harden and stabilize them” (Wella AG, priority 2001, dated 2010)
# Assays:
# [1] = Measurement of the improvement in combability: combing force on hair strands; settings: 1 wt. % creatine in shampoo of Example 2 vs same shampoo without creatine (1.43 N to 1.21 N); t-test significance level 97.5%
# Excerpt: Measurement of the Improvement in Combability The combability of hair is also an important parameter for describing hair quality. Various external influences such as certain cosmetic treatments (bleaching, dyeing permanent waving), weathering and frequent combing and brushing cause a deterioration in hair combability which is attributable to damage to the cuticula. The principle of most methods for measuring combability consists of measuring the force (combing force) required to move a comb through a hair strand under exactly defined boundary conditions. Within the framework of our own study, an automated apparatus was used for this purpose. […] The strands were then repeatedly and automatically combed one after another at a constant rate of speed, and for each combing the combing force N (newton) was recorded as a function of the combing path (strand length). The reported combing force values were finally obtained by averaging the combing forces over the combing path. The lower the combing force, the better is the combability of the hair.
# [2] = Measurement of the repair effect: tensile elongation measurement, strand tensile strength of hair; settings: 1 wt. % creatine in shampoo of Example 2 vs same shampoo without creatine (14.8 to 15.5 cN/tex); t-test significance level 99.9%
# Experimental: Measurement of the Repair Effect
# To determine the breaking force for hair, which is an indicator of the structural integrity of the hair cortex and is thus a measure of the degree of damage, common tensile elongation measurements were performed. From each hair strand, 20 individual hairs were selected and the individual hair diameters were measured with a computer-controlled laser micrometer. The force required to break the individual hairs was then determined with a tensile elongation tester (MTT 160/160 Series Miniature Tensile Tester, serial No. 600.95.05.001, DIA-STRON Ltd, England).
# From these individual test results, which because of the differing hair diameters are different, the strand tensile strength (STS) was determined by calculating from the individual values the tensile strength for a hair diameter of 0.08 mm (mean diameter) taking into account the hair diameters. By taking into account the hair density, a conversion to the unit for strand tensile strength (cN/tex) was finally made. The higher the numerical value of the strand tensile strength, the lower is the hair damage.
smiles,measurement,setting,value
"CN(CC(=O)O)C(=N)N [creatine, M-amidinosarcosine]",reduction of combing force (wet combability),[1],15.3%
same,increase of strand tensile strength,[2],4.7%
